Experimental data reported in ChEMBL document CHEMBL4270667, “Design and Synthesis of Potent HIV-1 Protease Inhibitors Containing Bicyclic Oxazolidinone Scaffold as the P2 Ligands: Structure-Activity Studies and Biological and X-ray Structural Studies” (J Med Chem, 2018).

Key:
[1] = test system: Human immunodeficiency virus 1; assay: Antiviral activity against darunavir-resistant HIV1 at passage 21 infected in human MT4 cells assessed as reduction in p24 Gag protein production after 7 days by automated chemiluminescent enzyme immunoassay; format: functional, organism-based; details: Human immunodeficiency virus 1, MT4, 168 h
[2] = test system: Human immunodeficiency virus 1; assay: Antiviral activity against lopinavir-resistant HIV1 infected in human MT4 cells assessed as reduction in p24 Gag protein production after 7 days by automated chemiluminescent enzyme immunoassay; format: functional, organism-based; details: Human immunodeficiency virus 1, MT4, 168 h
[3] = test system: Human immunodeficiency virus 1; assay: Antiviral activity against amprenavir-resistant HIV1 infected in human MT4 cells assessed as reduction in p24 Gag protein production after 7 days by automated chemiluminescent enzyme immunoassay; format: functional, organism-based; details: Human immunodeficiency virus 1, MT4, 168 h
[4] = Selectivity ratio of CC50 for human MT4 cells to IC50 for HIV1 NL4-3 infected in human MT4 cells; format: toxicity, cell-based; details: MT4 cells infected with HIV1 NL4-3, read-out: Ratio CC50/IC50
[5] = test system: Human immunodeficiency virus 1; assay: Antiviral activity against darunavir-resistant HIV1 at passage 51 infected in human MT4 cells assessed as reduction in p24 Gag protein production after 7 days by automated chemiluminescent enzyme immunoassay; format: functional, organism-based; details: Human immunodeficiency virus 1, MT4, 168 h
Protease = Protease (Human immunodeficiency virus 1, UniProt Q9YQ12); assay: Inhibition of HIV1 wild type NL4-3 protease expressed in Escherichia coli Rosetta (DE3) pLysS using Abz-Thr-Ile-Nle-Phe-(pNO2)-Gln-Arg-NH2 as substrate preincubated for 5 to 10 mins followed by substrate addition measured after 1 hr by fluorescence assay
Chain of Protease (Q9YQ12 whole entry): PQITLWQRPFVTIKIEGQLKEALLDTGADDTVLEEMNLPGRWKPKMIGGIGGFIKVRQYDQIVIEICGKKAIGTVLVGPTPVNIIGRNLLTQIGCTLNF

MT4 = assay: Cytotoxicity against human MT4 cells after 7 days by MTT assay; format: cell-based; details: mt4, 168 h
[6] = test system: Human immunodeficiency virus 1; assay: Antiviral activity against darunavir-resistant HIV1 at passage 30 infected in human MT4 cells assessed as reduction in p24 Gag protein production after 7 days by automated chemiluminescent enzyme immunoassay; format: functional, organism-based; details: Human immunodeficiency virus 1, MT4, 168 h
[7] = test system: Human immunodeficiency virus 1; assay: Antiviral activity against Atazanavir-resistant HIV1 infected in human MT4 cells assessed as reduction in p24 Gag protein production after 7 days by automated chemiluminescent enzyme immunoassay; format: functional, organism-based; details: Human immunodeficiency virus 1, MT4, 168 h
[8] = test system: Human immunodeficiency virus 1; assay: Antiviral activity against HIV1 NL4-3 infected in human MT4 cells assessed as reduction in p24 Gag protein production after 7 days by automated chemiluminescent enzyme immunoassay; format: functional, organism-based; details: Human immunodeficiency virus 1, NL4-3, MT4, 168 h

SMILES	Ki (Protease)	IC50 [8]	IC50 [1]	IC50 [2]	IC50 [3]	selectivity ratio [4]	IC50 [5]	CC50 (MT4)	IC50 [6]	IC50 [7]
COc1ccc(S(=O)(=O)N(CC(C)C)C[C@@H](O)[C@H](Cc2ccccc2)NC(=O)O[C@H]2C[C@H]3OC(=O)N(CC(C)C)[C@H]3C2)cc1	0.16 nM		> 1000 nM	615 nM	309 nM	> 2440	> 1000 nM	> 100000 nM	> 1000 nM	33 nM
COc1ccc(S(=O)(=O)N(CC(C)C)C[C@@H](O)[C@H](Cc2ccccc2)NC(=O)O[C@H]2C[C@H]3OC(=O)N(C)[C@H]3C2)cc1	0.03 nM	36 nM				> 2780				
CCCN1C(=O)O[C@@H]2C[C@H](OC(=O)N[C@@H](Cc3ccccc3)[C@H](O)CN(CC(C)C)S(=O)(=O)c3ccc(OC)cc3)C[C@@H]21	0.14 nM	447 nM								
C=C(C)CN1C(=O)O[C@@H]2C[C@H](OC(=O)N[C@@H](Cc3ccccc3)[C@H](O)CN(CC(C)C)S(=O)(=O)c3ccc(OC)cc3)C[C@@H]21	0.04 nM	23 to 31 nM	> 1000 nM	> 1000 nM	261 nM	> 3230	> 1000 nM	> 100000 nM	> 1000 nM	36 nM
Cc1cccc(C)c1OCC(=O)N[C@@H](Cc1ccccc1)[C@@H](O)C[C@H](Cc1ccccc1)NC(=O)[C@H](C(C)C)N1CCCNC1=O [LOPINAVIR]		6 nM	> 1000 nM	> 1000 nM	218 nM		> 1000 nM		> 1000 nM	311 nM
C=CCN1C(=O)O[C@@H]2C[C@H](OC(=O)N[C@@H](Cc3ccccc3)[C@H](O)CN(CC(C)C)S(=O)(=O)c3ccc(OC)cc3)C[C@@H]21	0.016 nM	369 nM								
CC(C)CN(C[C@@H](O)[C@H](Cc1ccccc1)NC(=O)O[C@H]1C[C@H]2OC(=O)N(C)[C@H]2C1)S(=O)(=O)c1ccc2nc(NC3CC3)sc2c1	0.19 nM	28 nM				1540		43000 nM		
COC(=O)N[C@H](C(=O)N[C@@H](Cc1ccccc1)[C@@H](O)CN(Cc1ccc(-c2ccccn2)cc1)NC(=O)[C@@H](NC(=O)OC)C(C)(C)C)C(C)(C)C [ATAZANAVIR]		0.89 nM	> 1000 nM	293 nM	2 nM		> 1000 nM		> 1000 nM	> 1000 nM
CC(C)CN(C[C@@H](O)[C@H](Cc1ccccc1)NC(=O)O[C@H]1CCOC1)S(=O)(=O)c1ccc(N)cc1		431 nM	> 1000 nM	> 1000 nM	> 1000 nM		> 1000 nM		> 1000 nM	> 1000 nM
COc1ccc(N2C(=O)O[C@@H]3C[C@H](OC(=O)N[C@@H](Cc4ccccc4)[C@H](O)CN(CC(C)C)S(=O)(=O)c4ccc(OC)cc4)C[C@@H]32)cc1	0.63 nM	> 1000 nM								
CC(C)CN(C[C@@H](O)[C@H](Cc1ccccc1)NC(=O)O[C@H]1CO[C@H]2OCC[C@H]21)S(=O)(=O)c1ccc(N)cc1		3.2 to 3.5 nM					> 1000 nM			

The next lines start with results.

Ki (Protease)	IC50 [8]	SMILES	IC50 [1]	IC50 [2]	IC50 [3]	selectivity ratio [4]	IC50 [5]	CC50 (MT4)	IC50 [6]	IC50 [7]
	21 nM	CC(C)(C)NC(=O)[C@@H]1C[C@@H]2CCCC[C@@H]2CN1C[C@@H](O)[C@H](Cc1ccccc1)NC(=O)[C@H](CC(N)=O)NC(=O)c1ccc2ccccc2n1								
0.016 nM	84 nM	COCN1C(=O)O[C@@H]2C[C@H](OC(=O)N[C@@H](Cc3ccccc3)[C@H](O)CN(CC(C)C)S(=O)(=O)c3ccc(OC)cc3)C[C@@H]21								
92.8 nM	> 1000 nM	COc1ccc(S(=O)(=O)N(CC(C)C)C[C@@H](O)[C@H](Cc2ccccc2)NC(=O)O[C@H]2C[C@H]3OC(=O)N(c4cccc(OC)c4)[C@H]3C2)cc1								
0.16 nM	436 nM	COc1ccc(S(=O)(=O)N(CC(C)C)C[C@@H](O)[C@H](Cc2ccccc2)NC(=O)O[C@@H]2C[C@@H]3OC(=O)N(C)[C@@H]3C2)cc1				> 229		> 100000 nM		
1.33 nM	> 1000 nM	COc1ccc(S(=O)(=O)N(CC(C)C)C[C@@H](O)[C@H](Cc2ccccc2)NC(=O)O[C@@H]2C[C@@H]3OC(=O)N[C@@H]3C2)cc1								
0.0012 nM	48.3 nM	COc1ccc(S(=O)(=O)N(CC(C)C)C[C@@H](O)[C@H](Cc2ccccc2)NC(=O)O[C@@H]2C[C@@H]3NC(=O)O[C@@H]3C2)cc1				> 2070		> 100000 nM		
0.33 nM	> 1000 nM	COc1ccc(S(=O)(=O)N(CC(C)C)C[C@@H](O)[C@H](Cc2ccccc2)NC(=O)O[C@H]2C[C@H]3OC(=O)N(c4ccccc4)[C@H]3C2)cc1								
0.08 nM	251 nM	COc1ccc(S(=O)(=O)N(CC(C)C)C[C@@H](O)[C@H](Cc2ccccc2)NC(=O)O[C@H]2C[C@H]3OC(=O)N(c4ccccc4OC)[C@H]3C2)cc1								
